Experiments:
Test in all cases: […]-pyruvate uptake, filter assay, complemented triple mutant
Assay type in all cases: cell-based
Details in all cases: 0.5 mM 14C-pyruvate, TSBG, 37 °C; labelled compound
LrgAB = target: T1, LrgAB (Staphylococcus aureus, UniProt Q2FK07+Q2FK08)
T1 construct: gene lrgA; lrgAB operon, untagged; expressed from Pcad::lrgAB (pBK123) in S. aureus JE2 transporter mutants

LctP = target: T2, LctP (Staphylococcus aureus, UniProt A0A0H2XEN8)
T2 construct: full-length 530 aa, untagged; expressed from Pcad::lctP (pBK123) in S. aureus JE2 delta lrgAB/lctP/lldP

LldP = target: T3, LldP (Staphylococcus aureus, UniProt A0A0H2XGA6)
T3 construct: gene SAUSA300_2313; full-length 532 aa, untagged; expressed from Pcad::lldP (pBK123) in S. aureus JE2 delta lrgAB/lctP/lldP
T3 sequence (A0A0H2XGA6 entry or part of it): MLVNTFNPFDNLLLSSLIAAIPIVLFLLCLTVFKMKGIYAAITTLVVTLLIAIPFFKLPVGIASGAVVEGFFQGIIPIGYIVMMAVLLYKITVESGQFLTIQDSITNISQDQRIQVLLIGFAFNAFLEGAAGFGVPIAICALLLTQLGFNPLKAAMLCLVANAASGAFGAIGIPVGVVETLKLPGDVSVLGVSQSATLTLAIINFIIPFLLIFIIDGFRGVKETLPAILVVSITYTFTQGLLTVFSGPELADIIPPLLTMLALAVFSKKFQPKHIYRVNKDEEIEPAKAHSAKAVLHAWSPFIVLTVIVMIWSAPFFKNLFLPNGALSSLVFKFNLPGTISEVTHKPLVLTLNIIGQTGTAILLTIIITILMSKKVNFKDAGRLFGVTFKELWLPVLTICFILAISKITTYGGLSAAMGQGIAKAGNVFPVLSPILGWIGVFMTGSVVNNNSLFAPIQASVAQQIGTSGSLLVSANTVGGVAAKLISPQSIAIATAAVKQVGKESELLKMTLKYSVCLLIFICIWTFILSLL

T1 sequence (Q2FK07 whole entry): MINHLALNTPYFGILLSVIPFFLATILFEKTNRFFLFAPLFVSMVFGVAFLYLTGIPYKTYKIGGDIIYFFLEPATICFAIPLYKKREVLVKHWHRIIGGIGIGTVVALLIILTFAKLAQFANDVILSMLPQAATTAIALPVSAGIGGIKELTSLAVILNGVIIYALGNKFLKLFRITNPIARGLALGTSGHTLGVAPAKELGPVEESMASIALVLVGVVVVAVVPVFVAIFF
T1 sequence (Q2FK08 whole entry): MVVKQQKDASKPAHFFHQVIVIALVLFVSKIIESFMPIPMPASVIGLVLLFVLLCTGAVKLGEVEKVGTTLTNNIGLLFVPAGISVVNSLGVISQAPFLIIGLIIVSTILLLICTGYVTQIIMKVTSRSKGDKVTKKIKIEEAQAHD
T2 sequence (A0A0H2XEN8 entry or part of it): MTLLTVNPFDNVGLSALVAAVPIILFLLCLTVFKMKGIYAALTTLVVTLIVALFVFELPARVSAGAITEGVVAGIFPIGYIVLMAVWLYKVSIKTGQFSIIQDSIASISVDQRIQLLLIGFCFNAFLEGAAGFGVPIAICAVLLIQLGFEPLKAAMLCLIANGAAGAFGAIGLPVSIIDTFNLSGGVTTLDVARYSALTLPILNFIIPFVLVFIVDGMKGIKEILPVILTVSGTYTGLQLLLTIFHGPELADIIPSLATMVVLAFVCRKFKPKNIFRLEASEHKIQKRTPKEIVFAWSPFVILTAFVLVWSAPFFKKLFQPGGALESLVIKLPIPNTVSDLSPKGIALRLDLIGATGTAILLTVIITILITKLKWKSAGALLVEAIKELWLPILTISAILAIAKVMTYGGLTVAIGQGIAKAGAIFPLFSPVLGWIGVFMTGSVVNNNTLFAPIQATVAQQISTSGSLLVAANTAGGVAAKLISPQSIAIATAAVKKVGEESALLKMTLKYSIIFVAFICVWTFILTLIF

Structure (SMILES): CC(=O)C(=O)O [pyruvate]
- 14C-pyruvate uptake, filter assay, complemented triple mutant (LrgAB): lctP playing the most significant role under these conditions, followed by lldP, and then lrgAB
- 14C-pyruvate uptake, filter assay, complemented triple mutant (LctP): all three of the putative pyruvate transporters contribute to pyruvate import, with lctP playing
- 14C-pyruvate uptake, filter assay, complemented triple mutant (LldP): lctP playing the most significant role under these conditions, followed by lldP, and then lrgAB

Source: paper PMC12632267, “Staphylococcus aureus encodes four differentially regulated pyruvate transporters” (Journal of Bacteriology, 2025)
